What was measured:
[1] = system: APOE*3Leiden mice; test: Plasma parameters, body and liver weight after 1% PS-containing Western-type diet; type: in vivo
From the text: Sphingolipids: The three sphingolipids that represent the most abundant natural complex sphingolipid classes and the three of the simplest natural sphingolipids, the sphingoid bases that can be formed by enzymatic breakdown of complex sphingolipids in the intestine were used. Sphingomyelin (mainly N-palmitoyl-sphingosine-1-phosphocholine) from egg was obtained from Larodan Fine Chemicals (Stockholm, Sweden). Yeast-derived (semi)synthetic ceramide III (N-stearoyl-phytosphingosine), cerebroside (N-stearoyl-phytosphingosine-1-glucose) and phytosphingosine (PS) were from Cosmoferm BV (Delft, the Netherlands). Sphinganine and sphingosine were from Avanti Polar Lipids (Albaster, Ala.). Animals and diets: Heterozygous female APOE*3Leiden transgenic mice (Van Vlijmen et al. 1994. J. Clin. Invest 93:1403-1410.) (6 months old) were fed a Western-type diet (Hope Farms, Woerden, the Netherlands) containing 15% cocoa butter, 0.25% cholesterol, 1% corn oil, 40.5% sucrose, 20% acid casein, 10% corn starch and 5.95% cellulose (all w/w) for 5 weeks. The mice were allowed free access to food and water. Body weight and food intake were monitored weekly. In the first experiment (FIG. 2), the mice were randomized after these 5 weeks into 7 groups (n=6), based on plasma cholesterol, triglycerides, and body weight. Subsequently, the mice were fed for three weeks the same diet without or with 0.1% (w/w) phytosphingosine (PS), sphingosine, sphinganine, cerebroside, ceramide III, or sphingomyelin. Then, the sphingolipid dose was increased to 0.2% (w/w) for 3 weeks and finally to 0.4% (w/w) for 3 weeks. At randomization, and at 3, 6, and 9 weeks, tail vein blood samples were obtained after a 4 h-fast. In all subsequent experiments, female APOE*3Leiden transgenic mice (6 months old) were fed the Western-type diet for 5 weeks, and randomized as described. Subsequently, they were fed the Western-type diet for 5 weeks, or this diet supplemented with 1.0% (w/w) of PS, before being subjected to experimentation.
Plasma parameters: Tail blood samples were collected in EDTA-coated cups, or in paraoxon-coated capillaries to prevent lipolysis as described in Zambon et al. 1993 (Zambon et al. 1993. J. Lipid Res. 34:1021-1028). Plasma lipid parameters were determined using commercial kits for total cholesterol (C) Chol R1 from Roche Diagnostics, Mannheim, Germany), non-esterified free fatty acids (FFA) (NEFA-C; Wako chemicals, Neuss, Germany), Total triglycerides (TG) (Triglyceride GPO-Trinder; Sigma, St. Louis, Mo.), β-hydroxybutyrate (β-HB; Sigma) and ALAT (Reflotron GPT; Roche). Serum amyloid A (SAA) was measured by ELISA (Biosource, Nivelles, Belgium) and fibrinogen by sandwich ELISA, as described in Koopman et al., 2005 (Koopman et al. 2005. Fibrinol Proteol 11:19). For lipoproteins fractionation, groupwise-pooled plasma was size-fractionated by fast protein liquid chromatography (FPLC) on a Superose 6 column (Äkta; Amersham Pharmacia Biotech, Uppsala, Sweden). Fractions were assayed for total C and TG as described. Hepatic VLDL-TG production: The rate of hepatic VLDL-TG production, de novo apoB secretion, and VLDL composition were determined in overnight-fasted mice. Mice were anaesthetized with vetranquil/fentanyl/midazolam i.p., and injected i.v. with 0.1 ml PBS containing 100 μCi Tran^35S-label™ (ICN Biomedicals, Irvine, Calif.) to measure the de novo apoB synthesis. After 30 min, the animals received a Triton WR1339 injection (Tyloxapol, Sigma; 500 mg/kg body weight in 100 μl saline) to prevent systemic lipolysis of newly-secreted hepatic VLDL-TG (Aalto-Setala et al. 1992. J. Clin. Invest 90:1889-1900.27) Blood samples were drawn at 0, 15, 30, 60, and 90 min after Triton WR1339 injection and plasma TG concentrations were determined. After 90 min, the animals were sacrificed and blood was collected by retro-orbital bleeding for isolation of VLDL. […]

[2] = system: APOE*3Leiden mice; test: Liver lipid levels, liver appearance and liver histology; type: in vivo; conditions: 1% PS diet; for Fat deposits / lipid-filled vacuoles in liver cells (HPS-stained sections): compared to controls
[3] = 1% PS in Western-type diet, 5 weeks
[4] = 1% PS in Western-type diet, 5 weeks, 4 h-fasted

CCCCCCCCCCCCCC[C@@H](O)[C@@H](O)[C@@H](N)CO [PS, phytosphingosine]
Effects on body weight or food intake ([1]; 1% (w/w) PS in Western-type diet, five weeks): No effects
Body weight, % Δ vs control [1, 3]: n.s.
HDL cholesterol (FPLC lipoprotein profile of pooled plasma) [1, 3]: did not change
Liver weight, % Δ vs control [1, 3]: −22%
Plasma free fatty acids, % Δ vs control [1, 3]: −36%
Plasma total cholesterol, % Δ vs control [1, 3]: −57%
Plasma triglycerides, % Δ vs control [1, 3]: −58%
Plasma β-hydroxybutyrate, % Δ vs control [1, 3]: n.s.
Body weight [1, 4]: 22.6 ± 1.0 g
Liver weight [1, 4]: 1.05 ± 0.08 g
Plasma free fatty acids [1, 4]: 1.06 ± 0.14 mmol/L
Plasma total cholesterol [1, 4]: 6.1 ± 1.1 mmol/L
Plasma triglycerides [1, 4]: 1.19 ± 0.39 mmol/L
Plasma β-hydroxybutyrate [1, 4]: 0.49 ± 0.39 mmol/L
Liver cholesteryl ester, % Δ vs control ([2]; 5 weeks): −61%
Liver free cholesterol, % Δ vs control ([2]; 5 weeks): −11%
Liver triglycerides, % Δ vs control ([2]; 5 weeks): −56%
Liver cholesteryl ester ([2]; 5 weeks, 4 h-fasted): 5.20 ± 0.79 μg/mg protein
Liver free cholesterol ([2]; 5 weeks, 4 h-fasted): 6.95 ± 0.78 μg/mg protein
Liver triglycerides ([2]; 5 weeks, 4 h-fasted): 15.28 ± 3.84 μg/mg protein
Fat deposits / lipid-filled vacuoles in liver cells (HPS-stained sections) [2]: less lipid-filled vacuoles
Fat deposits / lipid-filled vacuoles in liver cells (HPS-stained sections) ([2]; listed as phytosphingosine): absence of such fat deposits
Liver appearance at autopsy ([2]; control livers enlarged and yellowish): of normal size, and had a dark-red appearance
Decrease of liver Free C vs control ([2]; p<0.05): 11%
Decrease of liver cholesteryl esters vs control ([2]; p<0.05): 61%

— US7906488B2, “Sphingolipids in treatment and prevention of steatosis and of steatosis or of hepatotoxicity and its sequelae” (Nederlandse Organisatie Voor …, priority 2004, dated 2011)
